In the NIST ThermoML archive (doi:10.1021/je4000372):
Numbers after ± are expanded uncertainties.

Assay: xn = mol fraction of the nth substance listed
Conditions: 101 kPa, Liquid; for viscosity: Capillary tube (Ostwald / Ubbelohde) method; for mass density: Pycnometric method

## CCCCOCCOCCO [3,6-dioxa-1-decanol] + NCCO
293.15 K, x1 = 0.04025
  viscosity: 23.11 ± 0.73 mPa·s
  mass density: 1010.3 ± 2.1 kg/m3
293.15 K, x1 = 0.08607
  viscosity: 21.86 ± 0.69 mPa·s
  mass density: 1004.5 ± 2.1 kg/m3
293.15 K, x1 = 0.1392
  viscosity: 20.39 ± 0.64 mPa·s
  mass density: 998.5 ± 2.1 kg/m3
293.15 K, x1 = 0.2008
  viscosity: 18.81 ± 0.59 mPa·s
  mass density: 992.5 ± 2.1 kg/m3
293.15 K, x1 = 0.2732
  viscosity: 17.01 ± 0.54 mPa·s
  mass density: 986.4 ± 2.1 kg/m3
293.15 K, x1 = 0.3602
  viscosity: 15.02 ± 0.47 mPa·s
  mass density: 980.2 ± 2.1 kg/m3
293.15 K, x1 = 0.4111
  viscosity: 13.86 ± 0.44 mPa·s
  mass density: 976.9 ± 2.1 kg/m3
293.15 K, x1 = 0.4671
  viscosity: 12.72 ± 0.4 mPa·s
  mass density: 973.8 ± 2.1 kg/m3
293.15 K, x1 = 0.4977
  viscosity: 12.16 ± 0.38 mPa·s
  mass density: 972.1 ± 2.1 kg/m3
293.15 K, x1 = 0.6007
  viscosity: 10.46 ± 0.33 mPa·s
  mass density: 967.1 ± 2.1 kg/m3
293.15 K, x1 = 0.7204
  viscosity: 8.65 ± 0.27 mPa·s
  mass density: 962 ± 2 kg/m3
293.15 K, x1 = 0.7699
  viscosity: 8.02 ± 0.25 mPa·s
  mass density: 960.2 ± 2.1 kg/m3
293.15 K, x1 = 0.8163
  viscosity: 7.42 ± 0.23 mPa·s
  mass density: 958.5 ± 2.1 kg/m3
293.15 K, x1 = 0.9331
  viscosity: 6.34 ± 0.2 mPa·s
  mass density: 954.8 ± 2.1 kg/m3
293.15 K, x1 = 1
  viscosity: 5.84 ± 0.18 mPa·s
  mass density: 952.9 ± 2.1 kg/m3
303.15 K, x1 = 0.04025
  viscosity: 14.27 ± 0.46 mPa·s
  mass density: 1002.5 ± 2.1 kg/m3
303.15 K, x1 = 0.08607
  viscosity: 13.61 ± 0.44 mPa·s
  mass density: 996.6 ± 2.1 kg/m3
303.15 K, x1 = 0.1392
  viscosity: 12.86 ± 0.41 mPa·s
  mass density: 990.5 ± 2.1 kg/m3
303.15 K, x1 = 0.2008
  viscosity: 11.99 ± 0.38 mPa·s
  mass density: 984.2 ± 2.1 kg/m3
303.15 K, x1 = 0.2732
  viscosity: 11.01 ± 0.35 mPa·s
  mass density: 977.9 ± 2.1 kg/m3
303.15 K, x1 = 0.3602
  viscosity: 9.83 ± 0.31 mPa·s
  mass density: 971.5 ± 2.1 kg/m3
303.15 K, x1 = 0.4111
  viscosity: 9.16 ± 0.29 mPa·s
  mass density: 968.2 ± 2.1 kg/m3
303.15 K, x1 = 0.4671
  viscosity: 8.51 ± 0.27 mPa·s
  mass density: 964.9 ± 2.1 kg/m3
303.15 K, x1 = 0.4977
  viscosity: 8.17 ± 0.26 mPa·s
  mass density: 963.3 ± 2.1 kg/m3
303.15 K, x1 = 0.6007
  viscosity: 7.18 ± 0.23 mPa·s
  mass density: 958.1 ± 2 kg/m3
303.15 K, x1 = 0.7204
  viscosity: 6.21 ± 0.2 mPa·s
  mass density: 952.9 ± 2 kg/m3
303.15 K, x1 = 0.7699
  viscosity: 5.82 ± 0.18 mPa·s
  mass density: 951.1 ± 2 kg/m3
303.15 K, x1 = 0.8163
  viscosity: 5.47 ± 0.17 mPa·s
  mass density: 949.3 ± 2 kg/m3
303.15 K, x1 = 0.9331
  viscosity: 4.62 ± 0.15 mPa·s
  mass density: 945.5 ± 2 kg/m3
303.15 K, x1 = 1
  viscosity: 4.23 ± 0.13 mPa·s
  mass density: 943.5 ± 2 kg/m3
313.15 K, x1 = 0.04025
  viscosity: 9.52 ± 0.3 mPa·s
  mass density: 994.3 ± 2.1 kg/m3
313.15 K, x1 = 0.08607
  viscosity: 9.1 ± 0.29 mPa·s
  mass density: 988.5 ± 2.1 kg/m3
313.15 K, x1 = 0.1392
  viscosity: 8.62 ± 0.27 mPa·s
  mass density: 982.5 ± 2.1 kg/m3
313.15 K, x1 = 0.2008
  viscosity: 8.08 ± 0.26 mPa·s
  mass density: 976.4 ± 2.1 kg/m3
313.15 K, x1 = 0.2732
  viscosity: 7.47 ± 0.24 mPa·s
  mass density: 970.1 ± 2.1 kg/m3
313.15 K, x1 = 0.3602
  viscosity: 6.76 ± 0.21 mPa·s
  mass density: 963.7 ± 2.1 kg/m3
313.15 K, x1 = 0.4111
  viscosity: 6.37 ± 0.2 mPa·s
  mass density: 960.4 ± 2 kg/m3
313.15 K, x1 = 0.4671
  viscosity: 5.97 ± 0.19 mPa·s
  mass density: 957.2 ± 2 kg/m3
313.15 K, x1 = 0.4977
  viscosity: 5.77 ± 0.18 mPa·s
  mass density: 955.5 ± 2 kg/m3
313.15 K, x1 = 0.6007
  viscosity: 5.12 ± 0.16 mPa·s
  mass density: 950.3 ± 2 kg/m3
313.15 K, x1 = 0.7204
  viscosity: 4.42 ± 0.14 mPa·s
  mass density: 945.2 ± 2 kg/m3
313.15 K, x1 = 0.7699
  viscosity: 4.17 ± 0.13 mPa·s
  mass density: 943.3 ± 2 kg/m3
313.15 K, x1 = 0.8163
  viscosity: 3.96 ± 0.12 mPa·s
  mass density: 941.6 ± 2 kg/m3
313.15 K, x1 = 0.9331
  viscosity: 3.48 ± 0.11 mPa·s
  mass density: 937.7 ± 2 kg/m3
313.15 K, x1 = 1
  viscosity: 3.22 ± 0.1 mPa·s
  mass density: 935.7 ± 2 kg/m3
323.15 K, x1 = 0.04025
  viscosity: 6.64 ± 0.21 mPa·s
  mass density: 986.2 ± 2.1 kg/m3
323.15 K, x1 = 0.08607
  viscosity: 6.37 ± 0.2 mPa·s
  mass density: 980.4 ± 2.1 kg/m3
323.15 K, x1 = 0.1392
  viscosity: 6.07 ± 0.19 mPa·s
  mass density: 974.3 ± 2.1 kg/m3
323.15 K, x1 = 0.2008
  viscosity: 5.73 ± 0.18 mPa·s
  mass density: 968.1 ± 2.1 kg/m3
323.15 K, x1 = 0.2732
  viscosity: 5.33 ± 0.17 mPa·s
  mass density: 961.7 ± 2.1 kg/m3
323.15 K, x1 = 0.3602
  viscosity: 4.88 ± 0.15 mPa·s
  mass density: 955.1 ± 2 kg/m3
323.15 K, x1 = 0.4111
  viscosity: 4.63 ± 0.15 mPa·s
  mass density: 951.8 ± 2 kg/m3
323.15 K, x1 = 0.4671
  viscosity: 4.37 ± 0.14 mPa·s
  mass density: 948.4 ± 2 kg/m3
323.15 K, x1 = 0.4977
  viscosity: 4.23 ± 0.13 mPa·s
  mass density: 946.7 ± 2 kg/m3
323.15 K, x1 = 0.6007
  viscosity: 3.79 ± 0.12 mPa·s
  mass density: 941.5 ± 2 kg/m3
323.15 K, x1 = 0.7204
  viscosity: 3.34 ± 0.1 mPa·s
  mass density: 936.3 ± 2 kg/m3
323.15 K, x1 = 0.7699
  viscosity: 3.17 ± 0.1 mPa·s
  mass density: 934.4 ± 2 kg/m3
323.15 K, x1 = 0.8163
  viscosity: 3.02 ± 0.09 mPa·s
  mass density: 932.7 ± 2 kg/m3
323.15 K, x1 = 0.9331
  viscosity: 2.69 ± 0.08 mPa·s
  mass density: 928.7 ± 2 kg/m3
323.15 K, x1 = 1
  viscosity: 2.51 ± 0.08 mPa·s
  mass density: 926.6 ± 2 kg/m3
333.15 K, x1 = 0.04025
  viscosity: 4.82 ± 0.15 mPa·s
  mass density: 978.2 ± 2.1 kg/m3
333.15 K, x1 = 0.08607
  viscosity: 4.65 ± 0.15 mPa·s
  mass density: 972.5 ± 2.1 kg/m3
333.15 K, x1 = 0.1392
  viscosity: 4.43 ± 0.14 mPa·s
  mass density: 966.4 ± 2.1 kg/m3
333.15 K, x1 = 0.2008
  viscosity: 4.19 ± 0.13 mPa·s
  mass density: 960.1 ± 2 kg/m3
333.15 K, x1 = 0.2732
  viscosity: 3.91 ± 0.12 mPa·s
  mass density: 953.7 ± 2 kg/m3
333.15 K, x1 = 0.3602
  viscosity: 3.61 ± 0.11 mPa·s
  mass density: 947.1 ± 2 kg/m3
333.15 K, x1 = 0.4111
  viscosity: 3.45 ± 0.11 mPa·s
  mass density: 943.7 ± 2 kg/m3
333.15 K, x1 = 0.4671
  viscosity: 3.28 ± 0.1 mPa·s
  mass density: 940.4 ± 2 kg/m3
333.15 K, x1 = 0.4977
  viscosity: 3.19 ± 0.1 mPa·s
  mass density: 938.7 ± 2 kg/m3
333.15 K, x1 = 0.6007
  viscosity: 2.91 ± 0.09 mPa·s
  mass density: 933.5 ± 2 kg/m3
333.15 K, x1 = 0.7204
  viscosity: 2.59 ± 0.08 mPa·s
  mass density: 928.3 ± 2 kg/m3
333.15 K, x1 = 0.7699
  viscosity: 2.48 ± 0.08 mPa·s
  mass density: 926.4 ± 2 kg/m3
333.15 K, x1 = 0.8163
  viscosity: 2.37 ± 0.07 mPa·s
  mass density: 924.7 ± 2 kg/m3
333.15 K, x1 = 0.9331
  viscosity: 2.11 ± 0.07 mPa·s
  mass density: 920.7 ± 2 kg/m3
333.15 K, x1 = 1
  viscosity: 2 ± 0.06 mPa·s
  mass density: 918.5 ± 2 kg/m3
